The subject of the test is loblolly pine embryogenic cell lines. As to the kind of experiment: Yield of stage 3 somatic embryos from embryogenic cultures retrieved from cryopreservation (Example 4). It is filed as cell-based. Conditions: for Total Number of Somatic Embryos Harvested: recovered on 30 mg/l ABA, nine weeks on embryo development medium. The source says: The purpose of this experiment was to determine whether addition of ABA to the post-cryopreservation culture medium improved the yield of somatic embryos harvested from the cultures after they were retrieved from cryogenic storage. The six loblolly pine cell lines retrieved from cryogenic storage in Example 1 were used in this experiment. Embryogenic tissue from each cell line was dispersed onto nylon membranes using liquid DCR1 medium (formulation in Table 1 without the GELRITE). Four ml of embryogenic culture retrieved from cryogenic storage of each cell line and treatment (both the no ABA and the 30 mg/l ABA post-cryopreservation recovery medium) was added to 5 ml of liquid DCR1 medium and dispersed by agitation. One ml aliquots of the suspension were dispensed using a sterile 5-ml pipette with a cotton plug. Each 1 ml aliquot was transferred to the surface of a sterile 4 cm nylon membrane positioned on top of two sterile Whatman No. 2 filter papers in the bottom of an empty 15×100 mm sterile plastic culture plate. The nylon membranes with the dispersed embryogenic cultures were placed on either DCR1 medium containing 30 mg/l ABA or the same medium without any ABA depending on their respective post-cryopreservation recovery medium treatments from which they were derived. […] The tissue on the nylon membranes was cultured for 5-6 days at 23° C. in the dark to induce proliferation from the newly dispersed cultures. The nylon membranes with tissue were then transferred to an embryo development medium (see Table IV below) as described in U.S. Pat. No. 5,731,204 (Rutter et al.), to test the yield of stage 3 cotyledonary somatic embryos. The plates with membranes containing the embryogenic cultures were incubated in the dark at 23° C. The nylon membranes with the embryogenic cultures were transferred to new plates containing the same fresh embryo development medium every three weeks. After a total of nine weeks, the number of stage 3 embryos was counted on each membrane, and the data were analyzed using SAS GLM ANOVA statistical software.

[1] abbreviates: all six cell lines A1-A6, 30 mg/l ABA.

Here are results for one molecule from patent US6682931B2, “Recovering cryopreserved conifer embryogenic cultures” (MeadWestvaco Corporation, priority 1999, dated 2004).

Structures are written as SMILES.

Take `CC1=CC(=O)CC(C)(C)[C@@]1(O)/C=C/C(C)=C\C(=O)O` [ABA, abscisic acid]: the “% Increase of total number of somatic embryos harvested over control without ABA” value under setting [1] is listed as 332%. Besides, the “Total Number of Somatic Embryos Harvested, total of the 6 cell lines” value under setting [1] is reported as 588. For the same molecule, the “Total Number of Somatic Embryos Harvested” value reads like this: (cell line A1) 404; (cell line A2) 82; (cell line A3) 0; (cell line A4) 43; (cell line A5) 15; (cell line A6) 44.
